# Test system: C57BL/6 mice
# Experiment: In vivo tolerability: kidney and liver function markers
# Settings: 24 hours post injection, compared with PBS
# Protocol: 10A1P16-MDOA (spleen specific) iPLNPs were administrated intravenously (IV) to C57BL/6 mice (0.25 mg kg−1). Lipopolysaccharide (LPS, 5 mg kg−1, IP) was used as the positive control and PBS (IV) was examined as the negative control. 24 hours post injection, kidney function (BUN and CREA) and liver function (ALT and AST) were evaluated. […] Data are presented as mean±s.d. (n=3 biologically independent mice). Statistical significance was analyzed by the two-tailed unpaired t-test: ****, P<0.0001; ***, P<0.001; **, P<0.01; *, P<0.05.
substance,measurement,value
Lipopolysaccharide [LPS],kidney function (BUN and CREA) and liver function (ALT and AST),severe kidney and liver injury

# Source: US20230320994A1, “FUNCTIONAL IONIZABLE PHOSPHOLIPIDS” (The Board of Regents of The University of Texas System, priority 2020, published 2023)
